Legend:
BRD4-BD2 = BRD4-BD2 (Homo sapiens (Human), UniProt O60885); assay: AlphaScreen bromodomain proximity assay (biotinylated JQ1 competition); assay type: binding; details: in Table 4 '—' = not efficient
BRD4-BD1 = BRD4-BD1 (Homo sapiens (Human), UniProt O60885); assay: as above; assay type: binding; details: for BRD4-BD1 vs. BRD4-BD2 fold: BD1 selectivity, AlphaScreen IC50 ratio
BRDT-BD2 = BRDT-BD2 (Homo sapiens (Human), UniProt Q58F21); assay: as above; assay type: binding; details: in Table 4 '—' = not efficient
BRDT-BD1 = BRDT-BD1 (Homo sapiens (Human), UniProt Q58F21); assay: as above; assay type: binding; details: for IC50: AlphaScreen; for BRDT-BD1 vs. BRDT-BD2 fold: BD1 selectivity, AlphaScreen IC50 ratio; for fold loss of selectivity BRDT-BD1 over BRDT-BD2: compared to compound 2
[1] = Metabolic stability assay in human liver microsomes; assay type: in vitro ADME
[2] = Metabolic stability assay in mouse liver microsomes; assay type: in vitro ADME
NanoLuc-BET BD1 = assay: NanoBRET target engagement intracellular BET bromodomain assay in HEK293 cells; assay type: cell-based, human; details: transiently transfected HEK293 cells
[3] = test system: BRD4-dependent AML cell lines; assay: Cell viability testing (CellTiterGlo, 72 hours) in AML cell lines; assay type: cell-based
BD2 = details: background statement; cited from earlier work
[4] = 0.5 mg protein/mL, compound 2.0 μM, NADPH 1.0 mM

Compound | IC50 (BRD4-BD2) [nM] | IC50 (BRD4-BD1; AlphaScreen) [nM] | BRD4-BD1 vs. BRD4-BD2 fold (BRD4-BD1) | IC50 (BRDT-BD2) [nM] | IC50 (BRDT-BD1) [nM] | BRDT-BD1 vs. BRDT-BD2 fold (BRDT-BD1) | also measured
CNC(=O)[C@@H](CC1CCN(C(=O)Cc2ccc3[nH]c(=O)cc(C)c3c2)CC1)NC(=O)c1ccc(-c2ccc(Cl)cc2)cn1 [Compound 8, (R)-5-(4-chlorophenyl)-N-(3-(1-(2-(4-methyl-2-oxo-1,2-dihydroquinolin-6-yl)acetyl)piperidin-4-yl)-1-(methylamino)-1-oxopropan-2-yl)picolinamide] | 19900 | 12.8 | 1,553 fold | 33800 | 5.1 | 6,633 fold | –
Cc1cc(=O)[nH]c2ccc(CC(=O)N3CCC(CCNC(=O)c4nccc5ccccc45)CC3)cc12 [Compound 20, N-(2-(1-(2-(4-methyl-2-oxo-1,2-dihydroquinolin-6-yl)acetyl)piperidin-4-yl)ethyl)isoquinoline-1-carboxamide] | – | 341 | – | – | 638 | – | –
Cc1ccc(-c2ccc(C(=O)NC(C)CC3CCN(C(=O)Cc4ccc5[nH]c(=O)cc(C)c5c4)CC3)nc2)c(C)c1 (centres unmarked) [Compound 14, 5-(2,4-dimethylphenyl)-N-(1-(1-(2-(4-methyl-2-oxo-1,2-dihydroquinolin-6-yl)acetyl)piperidin-4-yl)propan-2-yl)picolinamide] | 20000 | 52.4 | 381 fold | 23400 | 31 | 756 fold | fold loss of selectivity BRDT-BD1 over BRDT-BD2 (BRDT-BD1): 6.5 fold
Cc1nnc2n1-c1ccc(Cl)cc1C(c1ccccc1)=NC2 [Alprazolam, reference compound] | – | – | – | – | – | – | HLM t1/2 [1, 4]: 14.4 h; MLM t1/2 [2, 4]: 5.03 h
Cc1sc2c(c1C)C(c1ccc(Cl)cc1)=N[C@@H](CC(=O)OC(C)(C)C)c1nnc(C)n1-2 [JQ1, tert-butyl (S)-2-(4-(4-chlorophenyl)-2,3,9-trimethyl-6H-thieno[3,2-f][1,2,4]triazolo[4,3-a][1,4]diazepin-6-yl)acetate, reference compound] | – | – | – | – | – | – | half-life in human liver microsomes (in words) ([1]; human, microsomes): quite low; metabolic stability in mouse liver microsomes (in words) ([2]; mouse, microsomes): labile; inhibition of tracer binding, BD1 vs BD2 (in words) (NanoLuc-BET BD1): binds both BD1 and BD2 equally
CNC(=O)C(CC1CCN(C(=O)Cc2ccc3[nH]c(=O)cc(C)c3c2)CC1)NC(=O)c1ccc(C(F)(F)F)cn1 (centres unmarked) [Compound 12, N-(3-(1-(2-(4-methyl-2-oxo-1,2-dihydroquinolin-6-yl)acetyl)piperidin-4-yl)-1-(methylamino)-1-oxopropan-2-yl)-5-(trifluoromethyl)picolinamide] | 8800 | 6.9 | 1,275 fold | 7190 | 14 | 513 fold | –
CNC(=O)[C@H](CC1CCN(C(=O)Cc2ccc3[nH]c(=O)cc(C)c3c2)CC1)NC(=O)c1ccc(-c2ccc(C)cc2C)cn1 [Compound 3, (S)-5-(2,4-dimethylphenyl)-N-(3-(1-(2-(4-methyl-2-oxo-1,2-dihydroquinolin-6-yl)acetyl)piperidin-4-yl)-1-(methylamino)-1-oxopropan-2-yl)picolinamide] | – | – | – | – | 96.6 | 65 fold | fold greater affinity for BRD4-BD1 than BRDT-BD1 (BRD4-BD1; AlphaScreen): 4 fold; cellular potency in AML cell lines (in words) [3]: minimal effect
CNC(=O)C(CC1CCN(C(=O)Cc2ccc3[nH]c(=O)cc(C)c3c2)CC1)NC(=O)c1ccc(-c2ccc(C)cc2C)cn1 (centres unmarked) [Compound 1, 5-(2,4-dimethylphenyl)-N-(3-(1-(2-(4-methyl-2-oxo-1,2-dihydroquinolin-6-yl)acetyl)piperidin-4-yl)-1-(methylamino)-1-oxopropan-2-yl)picolinamide] | – | – | – | – | 5.7 | 2246 fold | –
Cc1cc(=O)[nH]c2ccc(CC(=O)N3CCN(CCNC(=O)c4ccccn4)CC3)cc12 [Compound 21, N-(2-(4-(2-(4-methyl-2-oxo-1,2-dihydroquinolin-6-yl)acetyl)piperazin-1-yl)ethyl)picolinamide] | – | 1300 | – | 71800 | 5200 | 13.8 fold | –
CNC(=O)[C@H](CC1CCN(C(=O)Cc2ccc3[nH]c(=O)cc(C)c3c2)CC1)NC(=O)c1ccc(-c2ccccc2)cn1 [Compound 5, (S)-N-(3-(1-(2-(4-methyl-2-oxo-1,2-dihydroquinolin-6-yl)acetyl)piperidin-4-yl)-1-(methylamino)-1-oxopropan-2-yl)-5-phenylpicolinamide] | – | – | – | – | – | – | cellular potency in AML cell lines (in words) [3]: minimal activity
CNC(=O)C(CC1CCN(C(=O)Cc2ccc3[nH]c(=O)cc(C)c3c2)CC1)NC(=O)c1ccccn1 (centres unmarked) [Compound 11, N-(3-(1-(2-(4-methyl-2-oxo-1,2-dihydroquinolin-6-yl)acetyl)piperidin-4-yl)-1-(methylamino)-1-oxopropan-2-yl)picolinamide] | 32600 | 15.7 | 2,078 fold | 19400 | 20.2 | 960 fold | fold loss of selectivity BRDT-BD1 over BRDT-BD2 (BRDT-BD1): 5 fold
CNC(=O)[C@H](CC1CCN(C(=O)Cc2ccc3[nH]c(=O)cc(C)c3c2)CC1)NC(=O)c1ccc(C(F)(F)F)cn1 [Compound 7, (S)-N-(3-(1-(2-(4-methyl-2-oxo-1,2-dihydroquinolin-6-yl)acetyl)piperidin-4-yl)-1-(methylamino)-1-oxopropan-2-yl)-5-(trifluoromethyl)picolinamide] | – | 7.4 | – | – | 3.8 | – | –
Cc1ccc(-c2ccc(C(=O)NCCC3CCN(C(=O)Cc4ccc5[nH]c(=O)cc(C)c5c4)CC3)nc2)c(C)c1 [Compound 15, 5-(2,4-dimethylphenyl)-N-(2-(1-(2-(4-methyl-2-oxo-1,2-dihydroquinolin-6-yl)acetyl)piperidin-4-yl)ethyl)picolinamide] | 8690 | 27.8 | 312 fold | 67800 | 33.7 | 2012 fold | –
COc1cc(OC)c2c(=O)[nH]c(-c3cc(C)c(OCCO)c(C)c3)nc2c1 [RVX-208] | – | – | – | – | – | – | BD2 potency (BD2): > 100 nM; selectivity over BD1 domains (BD2): ~10 fold
Cc1cc(=O)[nH]c2ccc(CC(=O)N3CCC(CCNC(=O)c4ccc5ccccc5n4)CC3)cc12 [Compound 18, N-(2-(1-(2-(4-methyl-2-oxo-1,2-dihydroquinolin-6-yl)acetyl)piperidin-4-yl)ethyl)quinoline-2-carboxamide] | – | 122 | – | – | 81.3 | – | –
Cc1cc(=O)[nH]c2ccc(CC(=O)N3CCC(CCNC(=O)c4ccccc4)CC3)cc12 [Compound 17, N-(2-(1-(2-(4-methyl-2-oxo-1,2-dihydroquinolin-6-yl)acetyl)piperidin-4-yl)ethyl)benzamide] | – | 47.9 | – | 10400 | 148 | 70 fold | –
Cc1cc(=O)[nH]c2ccc(CC(=O)N3CCC(CCNC(=O)c4ccccn4)CC3)cc12 [Compound 16, N-(2-(1-(2-(4-methyl-2-oxo-1,2-dihydroquinolin-6-yl)acetyl)piperidin-4-yl)ethyl)picolinamide] | 75200 | 13.8 | 5,449 fold | 6800 | 35.4 | 192 fold | –
Cc1cc(=O)[nH]c2ccc(CC(=O)N3CCC(CCNC(=O)c4cc5ccccc5cn4)CC3)cc12 [Compound 19, N-(2-(1-(2-(4-methyl-2-oxo-1,2-dihydroquinolin-6-yl)acetyl)piperidin-4-yl)ethyl)isoquinoline-3-carboxamide] | – | 119 | – | – | 116 | – | –
CNC(=O)[C@@H](CC1CCN(C(=O)Cc2ccc3[nH]c(=O)cc(C)c3c2)CC1)NC(=O)c1ccc(-c2ccc(Cl)c(F)c2)cn1 [Compound 9, (R)-5-(4-chloro-3-fluorophenyl)-N-(3-(1-(2-(4-methyl-2-oxo-1,2-dihydroquinolin-6-yl)acetyl)piperidin-4-yl)-1-(methylamino)-1-oxopropan-2-yl)picolinamide] | 14000 | 9.8 | 1,423 fold | 22600 | 4.7 | 4,799 fold | –
